Values after ≈ are worked out from the molar mass of the structure shown. Active and inactive are the calls of the source. No cut-off for these calls is given here.
Key:
Type in all cases: functional, organism-based
[1] = tested on: Human immunodeficiency virus 1; assay: Antiviral activity against HIV1
Human alphaherpesvirus 1 = assay: Antiviral activity against HSV1
Human alphaherpesvirus 2 = assay: Antiviral activity against HSV2
Human betaherpesvirus 5 = assay: Antiviral activity against HCMV

Nc1ncnc2c1ncn2[C@@H]1C=C(CO)[C@@H](CO)O1
Activity [1]: inactive
Activity (Human alphaherpesvirus 1): inactive
Activity (Human alphaherpesvirus 2): inactive
Activity (Human betaherpesvirus 5): inactive

Cc1cn([C@@H]2C=C(CO)[C@@H](CO)O2)c(=O)[nH]c1=O
Activity [1]: inactive
EC50 (Human alphaherpesvirus 1): 33 µg/mL (≈ 130 µM)
Activity (Human alphaherpesvirus 2): inactive
Activity (Human betaherpesvirus 5): inactive

NC1C=CN([C@@H]2C=C(CO)[C@@H](CO)O2)C(=O)N1 (some centres not stated)
Activity [1]: inactive
Activity (Human alphaherpesvirus 1): inactive
Activity (Human alphaherpesvirus 2): inactive
Activity (Human betaherpesvirus 5): inactive

Source: ChEMBL document CHEMBL1255212, “Synthesis and antiviral evaluation of α-D-2',3'-didehydro-2',3'-dideoxy-3'-C-hydroxymethyl nucleosides” (Bioorg Med Chem Lett, 2010)
